SMILES strings stand for the structures.

Sequence of Glycogen synthase kinase-3 beta (P49841 whole entry): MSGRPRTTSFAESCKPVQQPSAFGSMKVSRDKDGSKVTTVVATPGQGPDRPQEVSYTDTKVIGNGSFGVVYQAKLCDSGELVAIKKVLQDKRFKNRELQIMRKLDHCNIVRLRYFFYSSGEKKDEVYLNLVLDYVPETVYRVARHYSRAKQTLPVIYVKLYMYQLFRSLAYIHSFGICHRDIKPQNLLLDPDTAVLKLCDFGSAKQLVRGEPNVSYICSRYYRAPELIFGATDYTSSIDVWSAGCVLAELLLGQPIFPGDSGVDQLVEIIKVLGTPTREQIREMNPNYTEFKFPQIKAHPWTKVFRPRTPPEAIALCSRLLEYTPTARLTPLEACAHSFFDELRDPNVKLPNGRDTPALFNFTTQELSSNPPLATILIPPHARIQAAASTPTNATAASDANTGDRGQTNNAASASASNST

This assay has as its target Glycogen synthase kinase-3 beta (Homo sapiens, UniProt P49841). The assay is described as follows: Kinase-Glo Luminescent Kinase Assay. The conditions noted are these: pH 7.4. The procedure: Briefly, recombinant human GSK3β (1 µM, 10 µL) was mixed with 10 µL of GSK3β substrate ([…]pSEDEEE, 100 µM), 19 µL of 2.5 × kinase buffer (50 mM Tris-HCl, pH 7.4, 25 mM MgCl2), 10 µL of 10 µM ATP, 1 µL of the indicated amount of chemicals in DMSO to a final volume of 50 µL. Control reaction without kinase was set up. The mixtures were incubated at 30 °C for 40 min. The enzymatic reaction was stopped with 50 µL of Kinase-Glo reagent. Glow-type luminescence was recorded after 10 min.
As usually defined, the IC50 is the concentration that inhibits the measured activity by half. Low values mean higher potency, high ones lower potency. Regarding `COc1cc2c(C)cc3c(c2cc1OC)C(=O)NC3=O` [7,8-Dimethoxy-5-methyl-1H-benzo[e]isoindole-1,3(2H)-dione], half-maximal inhibition (IC50) was put at 1010 nM.

On to `COc1cc2c(CNC3CCN(S(=O)(=O)c4ccccc4[N+](=O)[O-])CC3)cc3c(c2cc1OC)C(=O)NC3=O` [7,8-dimethoxy-5-((1-(2-nitrophenylsulfonyl)piperidin-4-ylamino)methyl)-1H-benzo[e]isoindole-1,3(2H)-dione (8f)], for which the IC50 worked out at 530 nM.

`COc1cc2c(CNC3CCN(S(=O)(=O)c4ccc(C(F)(F)F)cc4)CC3)cc3c(c2cc1OC)C(=O)NC3=O` [7,8-dimethoxy-5-((1-(4-(trifluoromethyl)phenylsulfonyl)piperidin-4-ylamino)methyl)-1Hbenzo[e]isoindole-1,3 (2H)-dione (8e)] showed an IC50 of 530 nM. As for `COc1ccc(S(=O)(=O)N2CCC(NCc3cc4c(c5cc(OC)c(OC)cc35)C(=O)NC4=O)CC2)cc1` [7,8-dimethoxy-5-((1-(4-methoxyphenylsulfonyl)piperidin-4-ylamino)methyl)-1H-benzo[e]isoindole-1,3(2H)-dione (8b)], the figure is 2610 nM.

Molecule `COc1cc2c(CNC3CCN(S(=O)(=O)c4ccc([N+](=O)[O-])cc4)CC3)cc3c(c2cc1OC)C(=O)NC3=O` [7,8-dimethoxy-5-((1-(4-nitrophenylsulfonyl)piperidin-4-ylamino)methyl)-1H-benzo[e]isoindole-1,3(2H)-dione (8c)] returned an IC50 of 310 nM.

As for `COc1cc2c(CNC3CCN(S(C)(=O)=O)CC3)cc3c(c2cc1OC)C(=O)NC3=O` [7,8-dimethoxy-5-((1-(methylsulfonyl)piperidin-4-ylamino)methyl)-1H-benzo[e]isoindole-1,3(2H)-dione (8d)], the midpoint of inhibition, the IC50, lay at 360 nM. As for `COc1cc2c(CNC3CCN(S(=O)(=O)c4ccccc4)CC3)cc3c(c2cc1OC)C(=O)NC3=O` [7,8-dimethoxy-5-((1-(phenylsulfonyl)piperidin-4-ylamino)methyl)-1H-benzo[e]isoindole-1,3(2H)-dione (8g)], the figure is 1030 nM; as for `COc1cc2c(CNC3CCN(S(=O)(=O)c4cccc5cccnc45)CC3)cc3c(c2cc1OC)C(=O)NC3=O` [7,8-dimethoxy-5-((1-(quinolin-8-ylsulfonyl)piperidin-4-ylamino)methyl)-1H-benzo[e]isoindole-1,3(2H)-dione (8h)], 1530 nM. For the molecule `COc1cc2c(CNC3CCN(S(=O)(=O)c4cccs4)CC3)cc3c(c2cc1OC)C(=O)NC3=O` [7,8-dimethoxy-5-((1-(thiophen-2-ylsulfonyl)piperidin-4-ylamino)methyl)-1H-benzo[e]isoindole-1,3(2H)-dione (8i)], 540 nM corresponded to half-maximal inhibition (IC50). The same measure for `COc1cc2c(CNC3CCN(S(=O)(=O)c4ccc(C)cc4)CC3)cc3c(c2cc1OC)C(=O)NC3=O` [7,8-dimethoxy-5-({[1-(4-methylbenzenesulfonyl)piperidin-4-yl]amino}methyl)-1H,2H,3H-benzo[e]isoindole-1,3-dione (8a)]: 3730 nM.

The values are drawn from BindingDB's records for doi:10.1016/j.bioorg.2015.05.009 (Peking University, 2015).
